Source: BindingDB's records for doi:10.1016/j.bmcl.2021.128215 (Shenyang Pharmaceutical University, 2021)

Target: Apoptosis regulator Bcl-2 (Homo sapiens) (UniProt P10415)
Assay: Binding affinity to Bcl-2 (unknown origin) by fluorescence polarization competition assay

Sequence of Apoptosis regulator Bcl-2 (Homo sapiens) (P10415 whole entry, looked up): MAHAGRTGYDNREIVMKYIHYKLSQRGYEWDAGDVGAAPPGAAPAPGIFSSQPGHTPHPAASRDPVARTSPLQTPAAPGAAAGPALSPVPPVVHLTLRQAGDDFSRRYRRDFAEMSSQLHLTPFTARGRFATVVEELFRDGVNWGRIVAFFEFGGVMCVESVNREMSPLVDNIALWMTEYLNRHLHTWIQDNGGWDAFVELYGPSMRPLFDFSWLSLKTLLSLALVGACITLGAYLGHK

SMILES: O=C(O)c1ccccc1-c1cccc2c1ccn2CCCOc1cccc2ccccc12
- Ki: 4.53 µM

SMILES: Cc1cccc(-c2cn(CCCOc3cccc4ccccc34)c3cccc(-c4ccccc4C(=O)O)c23)c1
- Ki: 0.56 µM

SMILES: O=C(O)c1ccccc1-c1cccc2c1c(-c1cccc(C(F)(F)F)c1)cn2CCCOc1cccc2ccccc12
- Ki: 2.55 µM

SMILES: O=C(O)c1ccc(Cl)cc1-c1cccc2c1ccn2CCCOc1cccc2ccccc12
- Ki: 0.49 µM

SMILES: Cc1cccc(-c2cn(CCOc3cccc4ccccc34)c3cccc(-c4ccccc4C(=O)O)c23)c1
- Ki: 0.36 µM

SMILES: O=C(O)c1ccccc1-c1cccc2c1c(-c1cccc(C(F)(F)F)c1)cn2CCOc1cccc2ccccc12
- Ki: 0.25 µM

SMILES: O=C(O)c1ccccc1-c1cccc2c1c(-c1cccc(Cl)c1)cn2CCOc1cccc2ccccc12
- Ki: 3.21 µM

SMILES: Cc1ccccc1-c1cn(CCOc2cccc3ccccc23)c2cccc(-c3ccccc3C(=O)O)c12
- Ki: 0.25 µM

SMILES: Cc1ccc(-c2cn(CCOc3cccc4ccccc34)c3cccc(-c4ccccc4C(=O)O)c23)cc1
- Ki: 0.87 µM

SMILES: CCc1ccccc1-c1cn(CCOc2cccc3ccccc23)c2cccc(-c3ccccc3C(=O)O)c12
- Ki: 0.3 µM

SMILES: CC(C)c1ccccc1-c1cn(CCOc2cccc3ccccc23)c2cccc(-c3ccccc3C(=O)O)c12
- Ki: 1.74 µM

SMILES: COc1ccccc1-c1cn(CCOc2cccc3ccccc23)c2cccc(-c3ccccc3C(=O)O)c12
- Ki: 0.82 µM

SMILES: Cc1cccc(-c2cn(CCOc3cccc4ccccc34)c3cccc(-c4ccccc4C(=O)O)c23)c1C
- Ki: 1.3 µM

SMILES: Cc1ccc(-c2cn(Cc3cccc4ccccc34)c3cccc(-c4ccccc4C(=O)O)c23)cc1
- Ki: 0.8 µM

SMILES: Cc1cccc(-c2cn(Cc3cccc4ccccc34)c3cccc(-c4ccccc4C(=O)O)c23)c1
- Ki: 1.8 µM

SMILES: Cc1ccccc1-c1cn(Cc2cccc3ccccc23)c2cccc(-c3ccccc3C(=O)O)c12
- Ki: 0.66 µM

SMILES: COc1ccccc1-c1cn(Cc2cccc3ccccc23)c2cccc(-c3ccccc3C(=O)O)c12
- Ki: 1.28 µM

SMILES: O=C(O)c1ccccc1-c1cccc2c1c(-c1cccc(Cl)c1)cn2Cc1cccc2ccccc12
- Ki: 0.1 µM

SMILES: O=C(O)c1ccccc1-c1cccc2c1c(-c1cccc(C(F)(F)F)c1)cn2Cc1cccc2ccccc12
- Ki: 1.08 µM

SMILES: COc1cccc(-c2cn(Cc3cccc4ccccc34)c3cccc(-c4ccccc4C(=O)O)c23)c1
- Ki: 0.53 µM

SMILES: O=C(O)c1ccccc1-c1cccc2c1c(-c1ccccc1)cn2Cc1cccc2ccccc12
- Ki: 0.82 µM
